Measurements from patent publication US20150209335A1, “METHODS AND SMALL MOLECULE THERAPEUTICS COMPRISING FUSED ELPS” (UNIVERSITY OF SOUTHERN CALIFORNIA, priority 2012, published 2015).

Assays:
[1] = in vivo; cited from earlier work
[2] = toxicity and body weight in the MDA-MB-468 xenograft mouse study; settings: after first 2 doses, dosed 3 times a week
From the text: 3 times a week. […] Therefore, the dose was reduced to only once a week.

[3] = system: lymphocytic infiltration of the lacrimal gland; assay: lymphocytic infiltration of the lacrimal gland in male NOD mice (autoimmune dacryoadenitis); format: in vivo, mouse; settings: 12 week old male NOD mice, tail vein, one week of treatment
From the text: The bottom panel is image analysis that was used to quantify % of tissue section containing lymphocyte foci. *p=0.003, **P=5×10·5, ***P=0.01, ****P=0.0009.

[4] = system: interferon gamma (IFN gamma); assay: interferon gamma expression in NOD mouse lacrimal gland, real time RT-PCR; format: in vivo; settings: NOD mice, 7-day treatment period
From the text: Quantitation was achieved using real time RT-PCR. Expression of IFN-gamma was quantified after a 7-day treatment period with PBS, Free Rapa, and FSI Rapa.

[5] = system: MDA-MB-468 rapamycin sensitive breast cancer cell line; assay: MTS cell viability assay, MDA-MB-468; format: cell-based; settings: MDA-MB-468 cell assay
Method: Each mouse was injected with 3×10^6 MDA-MB-468 cells s.c. in mammary fat pads. […] 3 times a week. […] Therefore, the dose was reduced to only once a week.

[6] = dynamic light scattering (DLS) size of ELP nanoparticles; format: physicochemical; settings: concentration of 25 uM
From the text: ELP diblock copolymers with hydrophobic and hydrophilic guest residues at opposite ends of the polymer (e.g. (Val-Pro-Gly-Ile-Gly) 48(Val-Pro-Gly-Ser-Gly)48 (SEQ ID NO: 12) called I48S48) can form nanoparticles. A class of ELP block copolymers with hydrophobic block:hydrophilic block=1:1 have been confirmed to form different sizes of stable nanoparticles. For instances, (Val-Pro-Gly-Ile-Gly)48(Val-Pro-Gly-Ser-Gly)48 (SEQ ID NO: 12) short name: 148S48; (Val-Pro-Gly- Phe-Gly)24(Val-Pro-Gly-Ser-Gly)24 (SEQ ID NO: 13)) short name F24S24. Dynamic light scattering (DLS) can be applied to measure the size of ELP nanoparticles. At concentration of 25 uM, ELP block copolymer 148S48 forms 24 nm in radius nanoparticles; however, F24S24 forms nanoparticles with 15 nm hydrodynamic radius. In order to actually observe the morphology of ELP nanoparticles, transmission electron microscopy (TEM) and cryo-transmission electron microscopy (Cryo-TEM) can be applied. In TEM, 1% of Uranyl acetate solution is used to negatively stain ELP nanoparticles. Therefore, ELP nanoparticles are expected to be observed as hollow spheres. Different from TEM in which ELP samples are loaded on a grid and dry at room temperature. Cryo-TEM studies ELP samples at cryogenic temperatures, generally liquid nitrogen temperatures. […]

[7] = Rapa encapsulation and release from ELP nanoparticles, dialysis under sink conditions, RP-HPLC; format: physicochemical; settings: preliminary experiments
Method: Dialysis under sink conditions was used track the loss of Rapa from the nanoparticles. Mean±SD (n=3).
A two phase method was developed to encapsulate Rapa into the ELP nanoparticles. An aqueous phase PBS containing S48I48 or FKBP-S48I48 was mixed with an organic phase hexane/EtOH containing Rapa in a small glass vial. The vial was kept stirred and heated up to the CMT of S48I48 or FKBP-S48I48. A nitrogen flow was applied to facilitate the evaporation of the hexane/EtOH phase. A 13.2K 10 min centrifugation was performed to remove the insoluble Rapa after the organic phase evaporated out. 100 μL of the sample was filtered and injected into a C-18 reverse phase HPLC column to analyze the amount of the Rapa that was initially encapsulated. Rapa releasing experiment was performed under a sink condition of H2O dialysis. Samples were collected in the dialysis cassette at time points of 0 h, 1 h, 2 h, 4 h, 6 h, 9 h, 19.5 h, 27 h, 31 h and 48 h. RP-HPLC was used to determine the amount of Rapa that was retained inside the ELP nanoparticle core.

Molecule	bioavailability of the plain drug [1]	body weight lost [2]	lymphocytic infiltration (lymphocyte foci) of lacrimal gland [3]	IFN gamma expression in lacrimal gland [4]	rapamycin dose (concentration) that could be reached [5]	nanoparticle hydrodynamic radius [6]	rapamycin encapsulation into plain ELP nanoparticles [7]
CO[C@H]1C[C@@H]2CC[C@@H](C)[C@@](O)(O2)C(=O)C(=O)N2CCCC[C@H]2C(=O)O[C@H]([C@H](C)C[C@@H]2CC[C@@H](O)[C@H](OC)C2)CC(=O)[C@H](C)/C=C(\C)[C@@H](O)[C@@H](OC)C(=O)[C@H](C)C[C@H](C)/C=C/C=C/C=C/1C [rapamycin, (3S,6R,7E,9R,10R,12R,14S,15E,17E,19E,21S,23S,26R,27R,34aS)-9,10,12,13,14,21,22,23,24,25,26,27,32,33,34,34a-hexadecahydro-9,27-dihydroxy-3-[(1R)-2-[(1S,3R,4R)-4-hydroxy-3-methoxycyclohexyl]-1-methylethyl]-10,21-dimethoxy-6,8,12,14,20,26-hexamethyl-23,27-epoxy-3H-pyrido[2,1-c][1,4]-oxaazacyclohentriacontine-1,5,11,28,29 (4H,6H,31H)-pentone]	less than 20%	about 10%	less lymphocyte invasion	sizeable reduction	could not reach such a high rapamycin concentration		
F24S24: ELP diblock copolymer (Val-Pro-Gly-Phe-Gly)24(Val-Pro-Gly-Ser-Gly)24 (SEQ ID NO: 13), forms nanoparticles (protein) VPGFGVPGFGVPGFGVPGFGVPGFGVPGFGVPGFGVPGFGVPGFGVPGFGVPGFGVPGFGVPGFGVPGFGVPGFGVPGFGVPGFGVPGFGVPGFGVPGFGVPGFGVPGFGVPGFGVPGFGVPGSGVPGSGVPGSGVPGSGVPGSGVPGSGVPGSGVPGSGVPGSGVPGSGVPGSGVPGSGVPGSGVPGSGVPGSGVPGSGVPGSGVPGSGVPGSGVPGSGVPGSGVPGSGVPGSGVPGSG						15 nm	efficiently encapsulated
I48S48: ELP diblock copolymer (Val-Pro-Gly-Ile-Gly)48(Val-Pro-Gly-Ser-Gly)48 (SEQ ID NO: 12), forms nanoparticles (protein) VPGIGVPGIGVPGIGVPGIGVPGIGVPGIGVPGIGVPGIGVPGIGVPGIGVPGIGVPGIGVPGIGVPGIGVPGIGVPGIGVPGIGVPGIGVPGIGVPGIGVPGIGVPGIGVPGIGVPGIGVPGIGVPGIGVPGIGVPGIGVPGIGVPGIGVPGIGVPGIGVPGIGVPGIGVPGIGVPGIGVPGIGVPGIGVPGIGVPGIGVPGIGVPGIGVPGIGVPGIGVPGIGVPGIGVPGIGVPGIGVPGSGVPGSGVPGSGVPGSGVPGSGVPGSGVPGSGVPGSGVPGSGVPGSGVPGSGVPGSGVPGSGVPGSGVPGSGVPGSGVPGSGVPGSGVPGSGVPGSGVPGSGVPGSGVPGSGVPGSGVPGSGVPGSGVPGSGVPGSGVPGSGVPGSGVPGSGVPGSGVPGSGVPGSGVPGSGVPGSGVPGSGVPGSGVPGSGVPGSGVPGSGVPGSGVPGSGVPGSGVPGSGVPGSGVPGSGVPGSG						24 nm	efficiently encapsulated
